Measured values published in patent US20240150303A1, “DIAMINOTRIAZINE COMPOUNDS” (BASF SE, priority 2021, published 2024).
“And” between values parts separate entries of the source, which are not always exact repeats. Equal entries are not always repeated.

Tests used:
Assay in all cases: greenhouse pre-emergence herbicidal test
Assay type in all cases: in vivo
Amaranthus retroflexus = test system: Amaranthus retroflexus
Text: (§1) The seeds of the test plants were sown separately for each species. For the pre-emergence treatment, the active ingredients, which had been suspended or emulsified in water, were applied directly after sowing by means of finely distributing nozzles. The containers were irrigated gently to promote germination and growth and subsequently covered with transparent plastic hoods until the plants had rooted. This cover caused uniform germination of the test plants, unless this had been impaired by the active ingredients. […] The test period extended over 2 to 4 weeks. During this time, the plants were tended, and their response to the individual treatments was evaluated. Evaluation was carried out using a scale from 0 to 100. 100 means no emergence of the plants, or complete destruction of at least the aerial moieties, and 0 means no damage, or normal course of growth. A moderate herbicidal activity is given at values of at least 60, a good herbicidal activity is given at values of at least 70, and a very good herbicidal activity is given at values of at least 85. The plants used in the greenhouse experiments were of the following species: [table]

Echinocloa crus-galli = test system: Echinocloa crus-galli
Text: as §1

Setaria faberi = test system: Setaria faberi
Text: as §1

Abutilon theophrasti = test system: Abutilon theophrasti
Text: The culture containers used were plastic flowerpots containing loamy sand with approximately 3.0% of humus as the substrate. The seeds of the test plants were sown separately for each species.
For the pre-emergence treatment, the active ingredients, which had been suspended or emulsified in water, were applied directly after sowing by means of finely distributing nozzles.
The containers were irrigated gently to promote germination and growth and subsequently covered with transparent plastic hoods until the plants had rooted. This cover caused uniform germination of the test plants, unless this had been impaired by the active ingredients.
Depending on the species, the plants were kept at 10-25° C. or 20-35° C., respectively.
The test period extended over 2 to 4 weeks. During this time, the plants were tended, and their response to the individual treatments was evaluated.
Evaluation was carried out using a scale from 0 to 100. 100 means no emergence of the plants, or complete destruction of at least the aerial moieties, and 0 means no damage, or normal course of growth. A moderate herbicidal activity is given at values of at least 60, a good herbicidal activity is given at values of at least 70, and a very good herbicidal activity is given at values of at least 85.
The plants used in the greenhouse experiments were of the following species: […]

Row | Compound | herbicidal activity (Amaranthus retroflexus; 62 g/ha) | herbicidal activity (Echinocloa crus-galli; 62 g/ha) | herbicidal activity (Setaria faberi; 62 g/ha) | other results
1 | COc1c(Br)cc(F)c(C)c1Nc1nc(N)nc(C(C)(C)F)n1 [Example 80] | 100% | 100% | 100% | –
2 | CCC(C)(F)c1nc(N)nc(Nc2c(C)c(F)cc(Br)c2OC)n1 (stereo not shown) [Example 79] | 100% | – | 100% | herbicidal activity (Abutilon theophrasti; 62 g/ha): 100%
3 | COc1c(Br)cc(F)c(C)c1Nc1nc(N)nc(C(C)F)n1 (stereo not shown) [Example 74] | 100% | 100% | 100% | –
4 | COc1c(Br)cc(Br)c(C)c1Nc1nc(N)nc(C(C)(C)F)n1 [Example 38] | – | – | – | herbicidal activity (Amaranthus retroflexus; 62.5 g/ha): 100%; herbicidal activity (Amaranthus retroflexus; 250 g/ha): 100%; herbicidal activity (Echinocloa crus-galli; 62.5 g/ha): 100%; herbicidal activity (Setaria faberi; 62.5 g/ha): 100%; herbicidal activity (Setaria faberi; 250 g/ha): 100%; herbicidal activity (Abutilon theophrasti; 250 g/ha): 100%
5 | C#CCOc1c(F)cc(C)c(Cl)c1Nc1nc(N)nc(C(C)(C)F)n1 [Example 56] | – | 100% | 100% | herbicidal activity (Echinocloa crus-galli; 62.5 g/ha): 90%; herbicidal activity (Setaria faberi; 62.5 g/ha): 100%; herbicidal activity (Abutilon theophrasti; 62 g/ha): 100%; herbicidal activity (Abutilon theophrasti; 62.5 g/ha): 90%
6 | COc1c(Br)cc(F)c(C)c1Nc1nc(N)nc(C(C)(F)CBr)n1 (stereo not shown) [Example 76] | 100% | 100% | 100% | –
7 | COc1c(F)ccc(Cl)c1Nc1nc(N)nc(C(C)(C)OC)n1 [Example 87] | 100% | 100% | 100% | –
8 | CC#CCOc1c(F)ccc(Cl)c1Nc1nc(N)nc(C(C)(C)OC)n1 [Example 90] | 100% | 100% | 100% | –
9 | COc1c(F)ccc(Cl)c1Nc1nc(N)nc(C(C)(F)F)n1 [Example 85] | – | 100% | 98% | herbicidal activity (Abutilon theophrasti; 62 g/ha): 85%
10 | CC#CCOc1c(F)cc(F)c(Cl)c1Nc1nc(N)nc(C(C)(C)F)n1 [Example 25] | 100% | 100% | 100% | herbicidal activity (Amaranthus retroflexus; 250 g/ha): 100%; herbicidal activity (Echinocloa crus-galli; 250 g/ha): 100%; herbicidal activity (Setaria faberi; 250 g/ha): 100%
11 | C#CCOc1c(Br)cc(F)c(C)c1Nc1nc(N)nc(C(C)(C)F)n1 [Example 22] | 100% | 100% | 100% | herbicidal activity (Amaranthus retroflexus; 62.5 g/ha): 85%; herbicidal activity (Echinocloa crus-galli; 62.5 g/ha): 85%; herbicidal activity (Setaria faberi; 62.5 g/ha): 100%
12 | COc1c(Br)cc(F)c(Cl)c1Nc1nc(N)nc(C(C)(C)F)n1 [Example 29] | 100% | – | 100% | herbicidal activity (Amaranthus retroflexus; 31 g/ha): 100%; herbicidal activity (Setaria faberi; 31 g/ha): 100%; herbicidal activity (Abutilon theophrasti; 31 g/ha): 100%; herbicidal activity (Abutilon theophrasti; 62 g/ha): 100%
13 | COc1c(Br)cc(F)c(C)c1Nc1nc(N)nc(C(C)(F)F)n1 [Example 77] | 100% | 100% | 100% | –
14 | COc1c(Br)cc(Cl)c(C)c1Nc1nc(N)nc(C(C)(F)CBr)n1 (racemic) [Example 99] | 100% | – | 100% | herbicidal activity (Abutilon theophrasti; 62 g/ha): 100%
15 | COc1c(Br)cc(C)c(Cl)c1Nc1nc(N)nc(C(C)(C)F)n1 [Example 83] | 100% | 100% | 100% | –
16 | COc1c(Br)cc(F)c(Cl)c1Nc1nc(N)nc(C2(F)CC2)n1 [Example 42] | – | – | – | herbicidal activity (Amaranthus retroflexus; 31 g/ha): 100%; herbicidal activity (Echinocloa crus-galli; 31 g/ha): 100%; herbicidal activity (Setaria faberi; 31 g/ha): 100%
17 | Nc1nc(Nc2c(Cl)cccc2OC(F)F)nc(C2(F)CCCC2)n1 [Example 94] | 100% | 100% | 100% | –
18 | COc1c(Cl)cc(F)c(C)c1Nc1nc(N)nc(C2(F)CCCC2)n1 [Example 73] | 100% | 100% | 100% | –
19 | CC#CCOc1c(Cl)cc(C)c(Cl)c1Nc1nc(N)nc(C(C)(C)F)n1 [Example 65] | – | 100% | 100% | herbicidal activity (Abutilon theophrasti; 62 g/ha): 100%
20 | COc1c(C)ccc(C)c1Nc1nc(N)nc(C(C)(C)OC)n1 [Example 17] | – | – | – | herbicidal activity (Amaranthus retroflexus; 250 g/ha): 100%; herbicidal activity (Echinocloa crus-galli; 250 g/ha): 100%; herbicidal activity (Abutilon theophrasti; 250 g/ha): 100%

Row | Compound | herbicidal activity (Amaranthus retroflexus; 62 g/ha) | herbicidal activity (Echinocloa crus-galli; 62 g/ha) | herbicidal activity (Setaria faberi; 62 g/ha) | other results
21 | CC(C)(F)c1nc(N)nc(Nc2c(Cl)c(F)cc(F)c2OCC#CC2CC2)n1 [Example 27] | 100% | 100% | 100% | herbicidal activity (Amaranthus retroflexus; 31 g/ha): 100%; herbicidal activity (Setaria faberi; 31 g/ha): 100%
22 | COc1c(Br)cc(Cl)c(C)c1Nc1nc(N)nc(C(C)F)n1 (racemic) [Example 96] | – | 70% | 75% | –
23 | COc1c(Br)cc(F)c(C)c1Nc1nc(N)nc(C(C)(F)CCl)n1 (stereo not shown) [Example 75] | 100% | 100% | 100% | –
24 | COc1c(C)ccc(C)c1Nc1nc(N)nc(C(C)F)n1 (stereo not shown) [Example 18] | – | – | – | herbicidal activity (Amaranthus retroflexus; 62.5 g/ha): 100%; herbicidal activity (Amaranthus retroflexus; 250 g/ha): 100%; herbicidal activity (Echinocloa crus-galli; 62.5 g/ha): 100%; herbicidal activity (Echinocloa crus-galli; 250 g/ha): 100%; herbicidal activity (Abutilon theophrasti; 62.5 g/ha): 100%; herbicidal activity (Abutilon theophrasti; 250 g/ha): 100%
25 | COc1c(Br)cc(F)c(C)c1Nc1nc(N)nc(C2(F)CCCC2)n1 [Example 78] | 100% | 100% | 100% | –
26 | COc1c(Cl)cc(Cl)c(C)c1Nc1nc(N)nc(C(C)(C)F)n1 [Example 34] | – | – | – | herbicidal activity (Amaranthus retroflexus; 62.5 g/ha): 100%; herbicidal activity (Echinocloa crus-galli; 62.5 g/ha): 100%; herbicidal activity (Abutilon theophrasti; 62.5 g/ha): 100%
27 | COc1c(F)ccc(Cl)c1Nc1nc(N)nc(C(C)(F)CBr)n1 (stereo not shown) [Example 86] | 100% | 100% | 100% | –
28 | CCC(C)(F)c1nc(N)nc(Nc2c(C)c(F)cc(Cl)c2OC)n1 (stereo not shown) [Example 81] | – | 100% | 100% | herbicidal activity (Abutilon theophrasti; 62 g/ha): 100%
29 | CC#CCOc1c(Br)cc(C)c(Cl)c1Nc1nc(N)nc(C(C)(C)F)n1 [Example 82] | 100% | 100% | 100% | –
30 | COc1c(F)ccc(C)c1Nc1nc(N)nc(C(C)(C)F)n1 [Example 16] | 100% | 100% | – | herbicidal activity (Amaranthus retroflexus; 250 g/ha): 100%; herbicidal activity (Echinocloa crus-galli; 250 g/ha): 100%; herbicidal activity (Abutilon theophrasti; 62 g/ha): 100%; herbicidal activity (Abutilon theophrasti; 250 g/ha): 100%
31 | COc1c(F)ccc(Cl)c1Nc1nc(N)nc(C(C)(C)F)n1 [Example 49] | 100% | 100% | – | herbicidal activity (Amaranthus retroflexus; 62.5 g/ha): 100%; herbicidal activity (Echinocloa crus-galli; 62.5 g/ha): 100%; herbicidal activity (Abutilon theophrasti; 62 g/ha): 100%; herbicidal activity (Abutilon theophrasti; 62.5 g/ha): 100%
32 | CC#CCOc1c(F)ccc(Cl)c1Nc1nc(N)nc(C(C)(F)F)n1 [Example 88] | 100% | 100% | 100% | –
33 | C#CCOc1c(F)cc(F)c(Cl)c1Nc1nc(N)nc(C(C)(C)F)n1 [Example 28] | 100% | 100% | 100% | herbicidal activity (Amaranthus retroflexus; 62.5 g/ha): 100%; herbicidal activity (Echinocloa crus-galli; 62.5 g/ha): 100%; herbicidal activity (Setaria faberi; 62.5 g/ha): 100%
34 | Cc1c(Br)cc(F)c(OCc2ccccc2)c1Nc1nc(N)nc(C(C)(C)F)n1 [Example 6] | – | – | – | herbicidal activity (Echinocloa crus-galli; 125 g/ha): 100%; herbicidal activity (Echinocloa crus-galli; 250 g/ha): 85%; herbicidal activity (Setaria faberi; 125 g/ha): 100%; herbicidal activity (Setaria faberi; 250 g/ha): 100%; herbicidal activity (Abutilon theophrasti; 125 g/ha): 100%; herbicidal activity (Abutilon theophrasti; 250 g/ha): 100%
35 | CC#CCOc1c(F)ccc(Cl)c1Nc1nc(N)nc(C(F)C(C)C)n1 (stereo not shown) [Example 89] | 100% | 100% | 100% | –
36 | CCC#CCOc1c(F)cc(F)c(Cl)c1Nc1nc(N)nc(C(C)(C)F)n1 [Example 26] | 100% | 100% | 100% | herbicidal activity (Amaranthus retroflexus; 250 g/ha): 100%; herbicidal activity (Echinocloa crus-galli; 250 g/ha): 100%; herbicidal activity (Setaria faberi; 250 g/ha): 100%
37 | CC#CCOc1c(F)ccc(Cl)c1Nc1nc(N)nc(C(C)(F)CBr)n1 (stereo not shown) [Example 91] | 100% | 100% | 100% | –
38 | CCOc1c(Br)cc(F)c(C)c1Nc1nc(N)nc(C(C)(C)F)n1 [Example 23] | 100% | 100% | 100% | herbicidal activity (Amaranthus retroflexus; 62.5 g/ha): 100%; herbicidal activity (Echinocloa crus-galli; 62.5 g/ha): 100%; herbicidal activity (Setaria faberi; 62.5 g/ha): 100%
39 | COc1c(Cl)ccc(Cl)c1Nc1nc(N)nc(C(C)(F)F)n1 [Example 72] | 100% | 100% | 80% and 100% | –
